# Legend:
# Type in all cases: biochemical
# human 20S proteasome = test system: T1, human 20S proteasome; test: Fluorogenic peptide degradation 20S proteasome activity assay, combination of CT-L, T-L and Casp-L substrates; conditions: for Fold increase over vehicle (30 μM), enhancement of 20S activity: 30 μM compound, mixture of the three substrates, 15 min pre-treatment at 37° C., 1 h read
# T1 construct: purchased Boston Biochem, Inc. (Cambridge, MA)
# Protocol: (§1) Activity assays were carried out in a 100 μL reaction volume. Different concentrations (40-1.25 μM) of test compounds (1 μL) were added to a black flat/clear bottom 96-well plate containing 2 nM of human constitutive 20S proteasome ([…]), in 50 mM Tris-HCl at pH 7.8, 100 mM NaCl and allowed to incubate for 15 min at 37° C. Fluorogenic substrates (5 μL) were then added and the enzymatic activity measured at 37° C. on a SpectraMax M5e spectrometer by measuring the change in fluorescence unit per minute for 1 hour at 380-460 nm. The fluorescence units for the vehicle control were set at a 100%, and the ratio of drug-treated sample set to that of vehicle control was used to calculate the fold change in enzymatic activity. The fluorogenic substrates used were one of the following: Suc-LLVY-AMC (CT-L activity, 20 μM), Z-LLE-AMC (Casp-L activity, 20 μM), Boc-LRR-AMC (Trp-L activity, 40 μM) or a combination of the three substrates each at 6.67 μM. Results were analysed and plotted using GraphPad Prism 7.
# (§2) Screening of this library of dihydroquinazolines was performed in two stages. In the first stage, each compound was screened at three concentrations (3, 10 and 30 μM) to select lead agents. Secondly, lead agents were further analyzed using full concentration responses (6-point titration ranging from 1.25 μM-40 μM) for each of the three proteolytic activities of the 20S proteasome and a combination thereof. The proteolytic activity of the 20S proteasome can be monitored in vitro by measuring the cleavage of fluorogenic peptide substrates for the different catalytic sites as an increase in 7-amino-4-methycoumarin (AMC) fluorescence overtime. A combination of chymotrypsin-like (CT-L, Suc-LLVY-AMC), tryptic-like (T-L, Boc-LRR-AMC) and caspase-like (Casp-L, Z-LLE-AMC) peptide substrates were used in equal amounts to screen compounds for overall 20S activity.
# Pure human 20S proteasome was pre-treated with 3, 10 or 30 μM of one of the analogues or DMSO (vehicle control) for 15 min at 37° C. To each sample was then added a mixture of the three substrates (13.3 μM each). The release of AMC was monitored as fluorescence overtime for 1 h and the resulting 20S activity changes were determined by comparing to the untreated 20S and calculating the fold-increase in activity for each analogue at a given concentration (Table 1, 30 μM).
# (§3) After analyzing the results in Table 1, three of the most promising analogues were selected for further studies into their 20S activity. Compounds 10, 2 and 18 were selected to be carried forward based on their fold increase and the highest Max-Fold activities. […] These compounds were then tested to obtain a full concentration—response (FIG. 1) of their activities towards the 20S proteasome using each of the three substrates for the three catalytic sites individually and the combination of the three substrates. This was done to ensure that each of the selected compounds activate the 20S proteasome at all three catalytic sites, which is critical for effective IDP degradation, as these proteins are likely to contain multiple cleavage sites for each.
# (§4) Using the data in FIG. 1, the concentration at which 20S activity was doubled (AC200) was calculated for each compound using each substrate and the combination of the three substrates (Table 2).
# [1] = test system: T2, human 20S proteasome, chymotrypsin-like (CT-L) site; test: Fluorogenic peptide degradation 20S proteasome activity assay, Suc-LLVY-AMC (CT-L activity); conditions: Suc-LLVY-AMC substrate
# T2 construct: purchased Boston Biochem, Inc. (Cambridge, MA)
# Protocol: as §1, §2, §3, §4
# [2] = test system: T3, human 20S proteasome, caspase-like (Casp-L) site; test: Fluorogenic peptide degradation 20S proteasome activity assay, Z-LLE-AMC (Casp-L activity); conditions: Z-LLE-AMC substrate
# T3 construct: purchased Boston Biochem, Inc. (Cambridge, MA)
# Protocol: as §1, §2, §3, §4
# [3] = test system: T4, human 20S proteasome, tryptic-like (T-L) site; test: Fluorogenic peptide degradation 20S proteasome activity assay, Boc-LRR-AMC (T-L activity); conditions: Boc-LRR-AMC substrate
# T4 construct: purchased Boston Biochem, Inc. (Cambridge, MA)
# Protocol: as §1, §2, §3, §4
# [4] = combination of the three substrates, 1.25-40 μM titration
smiles,measurement,setting,value
"c1ccc(CN2C(c3ccccc3)=Nc3ccccc3C2c2ccccc2)cc1 (stereo not drawn) [Compound 1, 3-Benzyl-2,4-diphenyl-3,4-dihydroquinazoline]","Fold increase over vehicle (30 μM), enhancement of 20S activity",human 20S proteasome,4 fold
CCCCCC1=Nc2cc(OC)ccc2C(c2ccccc2)N1Cc1ccccc1 (stereo not drawn) [Compound 8],"Fold increase over vehicle (30 μM), enhancement of 20S activity",human 20S proteasome,2.8 fold
"COc1ccc2c(c1)N=C(c1ccccc1)N(Cc1ccccn1)C2c1ccccc1 (stereo not drawn) [Compound 14, 7-Methoxy-2,4-diphenyl-3-[(2-pyridyl)methyl]-3,4-dihydroquinazoline]","Fold increase over vehicle (30 μM), enhancement of 20S activity",human 20S proteasome,2 fold
"COc1ccc2c(c1)N=C(c1ccccc1)N(CC1CCN(C)CC1)C2c1ccccc1 (stereo not drawn) [Compound 19, 7-Methoxy-3-[(1-methyl-4-piperidyl)methyl]-2,4-diphenyl-3,4-dihydroquinazoline]","Fold increase over vehicle (30 μM), enhancement of 20S activity",human 20S proteasome,1.2 fold
"COc1ccc2c(c1)N=C(c1ccccc1)N(CCc1ccccn1)C2c1ccccc1 (stereo not drawn) [Compound 15, 7-Methoxy-2,4-diphenyl-3-[2-(2-pyridyl)ethyl]-3,4-dihydroquinazoline]","Fold increase over vehicle (30 μM), enhancement of 20S activity",human 20S proteasome,2.8 fold
"CCCCCc1ccc2c(c1)N=C(c1ccccc1)N(Cc1ccccc1)C2c1ccccc1 (stereo not drawn) [Compound 4, 3-Benzyl-7-pentyl-2,4-diphenyl-3,4-dihydroquinazoline]","Fold increase over vehicle (30 μM), enhancement of 20S activity",human 20S proteasome,2.8 fold
C=CCN1C(c2ccccc2)=Nc2cc(OC)ccc2C1c1ccccc1 (stereo not drawn) [Compound 23],"Fold increase over vehicle (30 μM), enhancement of 20S activity",human 20S proteasome,2.3 fold
"COc1ccc2c(c1)N=C(c1ccccc1)N(c1cccc3cccnc13)C2c1ccccc1 (stereo not drawn) [Compound 13, 7-Methoxy-2,4-diphenyl-3-(8-quinolyl)-3,4-dihydroquinazoline]","Fold increase over vehicle (30 μM), enhancement of 20S activity",human 20S proteasome,5.3 fold
COc1ccc2c(c1)N=C(C(C)C)N(Cc1ccccc1)C2c1ccccc1 (stereo not drawn) [Compound 7],"Fold increase over vehicle (30 μM), enhancement of 20S activity",human 20S proteasome,2.3 fold
"COc1ccc2c(c1)N=C(C1CCCCC1)N(Cc1ccccc1)C2c1ccccc1 (stereo not drawn) [Compound 5, 3-Benzyl-2-cyclohexyl-7-methoxy-4-phenyl-3,4-dihydroquinazoline]","Fold increase over vehicle (30 μM), enhancement of 20S activity",human 20S proteasome,6.5 fold
COc1ccc2c(c1)N=C(c1ccccc1)N(Cc1ccccc1)C2c1ccccc1 (stereo not drawn) [Compound 2],"Fold increase over vehicle (30 μM), enhancement of 20S activity",human 20S proteasome,7.9 fold
same,concentration at which 20S activity was doubled in the combination (in words),human 20S proteasome; combination of the three substrates,low μM concentrations
same,"AC200 (concentration at which 20S activity was doubled), Combo",human 20S proteasome; [4],2.0 µM
same,"Max Fold, Combo",human 20S proteasome; [4],10.1 fold
same,"AC200, CT-L",[1],12.9 µM
same,"Max Fold, CT-L",[1],5.6 fold
same,"AC200, Casp-L",[2],5.6 µM
same,"Max Fold, Casp-L",[2],13.4 fold
same,"AC200, T-L",[3],5.0 µM
same,"Max Fold, T-L",[3],11.7 fold
"COc1ccc2c(c1)N=C(c1ccccc1)N(C1CCN(C)CC1)C2c1ccccc1 (stereo not drawn) [Compound 17, 7-Methoxy-3-(1-methyl-4-piperidyl)-2,4-diphenyl-3,4-dihydroquinazoline]","Fold increase over vehicle (30 μM), enhancement of 20S activity",human 20S proteasome,1 fold
same,"Max Fold, Combo",human 20S proteasome; [4],1.4 fold
same,activity towards the 20S (in words),human 20S proteasome; screen of Table 1,no discemible activity towards the 20S
same,"Max Fold, CT-L",[1],1.1 fold
same,"Max Fold, Casp-L",[2],0.8 fold
same,"Max Fold, T-L",[3],1.0 fold
"COc1ccc2c(c1)N=C(c1ccccc1)N(CC#N)C2c1ccccc1 (stereo not drawn) [Compound 22, (7-Methoxy-2,4-diphenyl-3,4-dihydroquinazolin-3-yl)acetonitrile]","Fold increase over vehicle (30 μM), enhancement of 20S activity",human 20S proteasome,2.7 fold

# — patent US20250179031A1, “PROTEASOME ENHANCERS AND USES THEREOF” (Board of Trustees of Michigan State University, priority 2022, published 2025)
